Test results: US20060264388A1, “Method for treating liver cancer by intrahepatic administration of nemorubicin” (priority 2003, published 2006)

How the values were obtained:
[1] = tested on: patients with liver cancer; test: Hematological toxicity - Neutrophils, worst CTC Grade by cycle, intrahepatic artery nemorubicin q8wk vs q6wk; assay type: in vivo, human
Protocol: (§1) The objective of the study was to shorten the time interval between treatment administrations from every 8 weeks (q8wk) of the protocol as reported in WO 00/15203 to every 6 weeks (q6wk). This was done in the attempt of improving the therapeutic potential of nemorubicin treatment through an increase of the dose intensity of the therapy, simultaneously safeguarding patient safety.
(§2) Overall, 13 patients were treated with the q8wk schedule (total 25 cycles administered; doses ranged from 200 to 800 mcg/m^2), and 11 patients were treated with the q6wk schedule (total 32 cycles administered; doses were 200 and 600 mcg/m^2).
The NCI-Common Tosicity Criteria grading system (CTC Grade), Version 2.0, was used to report toxicities.
A slight cumulative effect (i.e., increase in frequency but not in severity) was observed after repeated cycles for leucopenia and neutropenia (Tables 2 and 3), mainly with the q8wk schedule.

human liver tumor = test: Efficacy: tumor response, intrahepatic artery nemorubicin q8wk vs q6wk; assay type: in vivo
Protocol: as §1, §2

[2] = tested on: murine leukemias, solid murine and human tumor models; conditions: cited from earlier work
[3] = 200 mcg/m^2 q6wk, All cycles, 11 evaluable cycles
[4] = 200 mcg/m^2 q6wk, Cycle 1, 5 evaluable cycles
[5] = 200 mcg/m^2 q6wk, Cycles > 1, 6 evaluable cycles
[6] = 200 mcg/m^2 q8wk, All cycles, 5 evaluable cycles
[7] = 200 mcg/m^2 q8wk, Cycle 1, 3 evaluable cycles
[8] = 200 mcg/m^2 q8wk, Cycles > 1, 2 evaluable cycles
[9] = 400 mcg/m^2 q8wk, All cycles, 4 evaluable cycles
[10] = 400 mcg/m^2 q8wk, Cycle 1, 3 evaluable cycles
[11] = 600 mcg/m^2 q6wk, All cycles, 18 evaluable cycles
[12] = 600 mcg/m^2 q6wk, Cycle 1, 6 evaluable cycles
[13] = 600 mcg/m^2 q6wk, Cycles > 1, 12 evaluable cycles
[14] = 600 mcg/m^2 q8wk, All cycles, 8 evaluable cycles
[15] = 600 mcg/m^2 q8wk, Cycles > 1, 4 evaluable cycles
[16] = 800 mcg/m^2 q8wk, All cycles, 4 evaluable cycles
[17] = 800 mcg/m^2 q8wk, Cycle 1, 3 evaluable cycles

For COc1cccc2c1C(=O)c1c(O)c3c(c(O)c1C2=O)C[C@@](O)(C(=O)CO)C[C@@H]3O[C@H]1C[C@H](N2CCO[C@H](OC)C2)[C@H](O)[C@H](C)O1.Cl [nemorubicin, 3′desamino-3′[2(S)methoxy-4-morpholinyl]doxorubicin-hydrochloride], the “Neutrophils, worst CTC Grade by cycle: All Grades (%)” value (from here on “Neutrophils … All Grades (%)”) [1, 3] was 4 (36%) (%), the “Neutrophils, worst CTC Grade by cycle: Grade 1-2 (%)” value (shortened to “Neutrophils … Grade 1-2 (%)”) [1, 3] was 4 (36%) (%) and the “Neutrophils … All Grades (%)” value [1, 4] was 2 (40%) (%). The “Neutrophils … Grade 1-2 (%)” value [1, 4] was 2 (40%) (%), the “Neutrophils … All Grades (%)” value [1, 5] was 2 (33%) (%) and the “Neutrophils … Grade 1-2 (%)” value [1, 5] was 2 (33%) (%). For the same molecule, the “Neutrophils … All Grades (%)” value [1, 6] was 3 (60%) (%), the “Neutrophils … Grade 1-2 (%)” value [1, 6] was 3 (60%) (%) and the “Neutrophils … All Grades (%)” value [1, 7] was 1 (33%) (%). The “Neutrophils … Grade 1-2 (%)” value [1, 7] was 1 (33%) (%), the “Neutrophils … All Grades (%)” value [1, 8] was 2 (100%) (%) and the “Neutrophils … Grade 1-2 (%)” value [1, 8] was 2 (100%) (%). The “Neutrophils … All Grades (%)” value [1, 9] was 1 (25%) (%), the “Neutrophils … Grade 1-2 (%)” value [1, 9] was 1 (25%) (%) and the “Neutrophils … All Grades (%)” value [1, 10] was 1 (33%) (%). For the same molecule, the “Neutrophils … Grade 1-2 (%)” value [1, 10] was 1 (33%) (%), the “Neutrophils … All Grades (%)” value [1, 11] was 3 (17%) (%) and the “Neutrophils … Grade 1-2 (%)” value [1, 11] was 3 (17%) (%). For the same molecule, the “Neutrophils … All Grades (%)” value [1, 12] was 1 (17%) (%), the “Neutrophils … Grade 1-2 (%)” value [1, 12] was 1 (17%) (%) and the “Neutrophils … All Grades (%)” value [1, 13] was 2 (17%) (%). For the same molecule, the “Neutrophils … Grade 1-2 (%)” value [1, 13] was 2 (17%) (%), the “Neutrophils … All Grades (%)” value [1, 14] was 2 (25%) (%) and the “Neutrophils … Grade 1-2 (%)” value [1, 14] was 2 (25%) (%). The “Neutrophils … All Grades (%)” value [1, 15] was 2 (50%) (%), the “Neutrophils … Grade 1-2 (%)” value [1, 15] was 2 (50%) (%) and the “Neutrophils … All Grades (%)” value [1, 16] was 1 (25%) (%). The “Neutrophils … Grade 1-2 (%)” value [1, 16] was 1 (25%) (%), the “Neutrophils … All Grades (%)” value [1, 17] was 1 (33%) (%) and the “Neutrophils … Grade 1-2 (%)” value [1, 17] was 1 (33%) (%). For the same molecule, the “lesion area reduction versus baseline” value (human liver tumor; 200 mcg/m^2 q6wk, one patient AJCC stage II (confirmed PR), CT scan 5 weeks after going off study) was 70%, the “tumor shrinkage versus baseline” value (human liver tumor; 200 mcg/m^2 q6wk, one patient AJCC stage II (confirmed PR), after 2 cycles) was 64% and the “duration of PR in the original lesion (right lobe)” value (human liver tumor; 200 mcg/m^2 q8wk, one patient AJCC stage II (unconfirmed PR)) was ≥ 12 months. The “decrease in tumor area versus baseline” value (human liver tumor; 200 mcg/m^2 q8wk, one patient AJCC stage II (unconfirmed PR), after 2 cycles) was 85.9%, the “shrinkage of measurable lesion versus baseline” value (human liver tumor; 200 mcg/m^2 q8wk, one patient AJCC stage III (confirmed PR), after 1 cycle) was 78.45% and the “lesion area reduction versus baseline” value (human liver tumor; 200 mcg/m^2 q8wk, one patient AJCC stage III (confirmed PR), second cycle) was 95.3%. For the same molecule, the “duration of PR” value (human liver tumor; 600 mcg/m^2 q6wk, one patient AJCC stage III (confirmed PR), 5 cycles) was ≥ 8 months, the “reduction of measurable lesion area versus baseline” value (human liver tumor; 600 mcg/m^2 q6wk, one patient AJCC stage III (confirmed PR), cycle 3) was 78.2% and the “reduction of the measurable lesion area” value (human liver tumor; 600 mcg/m^2 q6wk, one patient AJCC stage III (confirmed PR), first treatment cycle) was 48.4%. For the same molecule, the “duration of PR in the original lesion (right lobe)” value (human liver tumor; 600 mcg/m^2 q8wk, one patient stage III (unconfirmed PR)) was “about 3 months”, the “decrease of lesion area versus baseline” value (human liver tumor; 600 mcg/m^2 q8wk, one patient stage III (unconfirmed PR), after one cycle) was 54.3% and the “decrease in tumor area versus baseline, perfused right lobe” value (human liver tumor; 600 mcg/m^2 q8wk, one patient stage III (unconfirmed PR), cycle 2) was 68.2%. The “decrease of the tumor area versus baseline” value (human liver tumor; 800 mcg/m^2 q8wk, one patient AJCC stage III (unconfirmed PR), after 3 cycles) was 52%, the “confirmed PR out of treated patients” value (human liver tumor; q6wk schedule) was “two confirmed PR out of 11 treated patients” and the “confirmed PR out of treated patients” value (human liver tumor; q8wk schedule) was “one confirmed PR out of 13 treated patients”. The antitumor activity ([2]; after i.p., i.v. or oral administration, murine leukemias, solid murine and human tumor models) was “good antitumor activity”, the “effective oral doses, fold higher than the effective i.v. doses” value ([2]; animal tumor models, oral vs i.v.) was 1.3-2 fold and the “optimal i.v. dose, fold less than that of doxorubicin” value ([2]; in vivo, i.v.) was “at least 80 fold”.
